For one molecule, inhibition results are on record in patent publication EP0483271B1, “PEPTIDES CONTAINING DIAMINO-GLYCOLS AS TRANSITION-STATE MIMICS” (THE UPJOHN COMPANY, priority 1989, dated 1993).

Structures can show the parent of a compound that is named as a salt.

This test relates to renin. As to the kind of experiment: renin inhibitory activity, in vitro test (as described in US-A-4880781 and EP-A-0 173 481, pages 103-105). It is filed as biochemical. The note with it: at 10⁻⁸M; printed under the heading IC₅₀(M). On the procedure:
In the examples below, the renin inhibitory activity of the compounds of the present invention (IC₅₀'s) are determined using the in vitro test described in US-A-4880 781 (U.S. patent application, Serial No. 07/147,073, filed 20 January 1988), and in EP-A-0 173 481, published 5 March 1986, pages 103-105, which are hereby incorporarted by reference.

Take `COc1ccc(C[C@H](NC(=O)[C@@H]2CCCN2C(=O)CC[C@H](N)C(=O)O)C(=O)N[C@@H](Cc2c[nH]cn2)C(=O)N[C@@H](CC2CCCCC2)[C@@H](O)[C@@H](O)CC(C)(C)N)cc1` [Example 7, L-Arabino-heptitol6-amino-1,2,5,6,7-pentadeoxy-1-cyclohexyl-2-[[N-[N-(1-L-γ-glutamyl-L-prolyl)-O-methyl-L-tyrosyl]-L-histidyl]-amino]-6-methyl-, tris(trisluoroacetate) salt]: the inhibition is 34%.

Usually inhibition stands for the change of the read-out against control, counted positive when it falls. A low value points to a response near the control.
